Measurements published in ChEMBL document CHEMBL1201862, “PubChem BioAssay data set” (2004).
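Test compounds were applied to cells in 96-well plates for 48 hours at 5 doses. GI50 marks 50% less growth.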 Activity calls are given as the source filed them. Rule as the data show it: active = GI50 up to about 1.1 µM and inactive = higher.

Experiments:
Assay in all cases: NCI-60 cell line screen, 48 h
[1] = system: PC-3
[2] = system: OVCAR-3
[3] = system: Malme-3M
[4] = system: OVCAR-5
[5] = system: HCT-15
[6] = system: U-251
[7] = system: UACC-257
[8] = system: OVCAR-4
[9] = system: SK-MEL-28
[10] = system: A549
[11] = system: HL-60
[12] = system: SR
[13] = system: SN12C
[14] = system: CCRF-CEM
[15] = system: UO-31
[16] = system: RPMI-8226
[17] = system: COLO 205
[18] = system: SNB-75
[19] = system: SF-268
[20] = system: K562
[21] = system: SNB-19
[22] = system: SF-539
[23] = system: BT-549
[24] = system: MOLT-4
[25] = system: T47D
[26] = system: EKVX
[27] = system: NCI-H522
[28] = system: DU-145
[29] = system: HOP-92
[30] = system: M14
[31] = system: KM12
[32] = system: HCC 2998
[33] = system: SK-MEL-2
[34] = system: SW-620
[35] = system: MDA-MB-231
[36] = system: NCI-H23
[37] = system: LOX IMVI
[38] = system: SK-OV-3
[39] = system: A498
[40] = system: CAKI-1
[41] = system: TK-10
[42] = system: NCI/ADR-RES
[43] = system: IGROV-1
[44] = system: HOP-62
[45] = system: HCT-116
[46] = system: MDA-MB-435
[47] = system: MDA-N
[48] = system: MCF7
[49] = system: 786-0
[50] = system: HT-29
[51] = system: ACHN
[52] = system: UACC-62
[53] = system: SK-MEL-5
[54] = system: NCI-H460
[55] = system: SF-295
[56] = system: OVCAR-8
[57] = system: NCI-H226
[58] = system: Hs-578T
[59] = system: RXF 393

Question: Which results are given for C=C1CC(Cn2cc(C)c(=O)[nH]c2=O)(c2ccc(-c3ccccc3)cc2)OC1=O (stereo not given)?
Answer: GI50 [1]: 2.01 µM (inactive); GI50 [2]: 1.21 µM (inactive); GI50 [3]: 2.11 µM (inactive); GI50 [4]: 9.46 µM (inactive); GI50 [5]: 1690 nM; GI50 [6]: 10.6 µM (inactive); GI50 [7]: 1.44 µM (inactive); GI50 [8]: 2.49 µM (inactive); GI50 [9]: 1.78 µM (inactive); GI50 [10]: 8.49 µM (inactive); GI50 [11]: 0.415 µM (active); GI50 [12]: 0.82 µM (active); GI50 [13]: 2.54 µM (inactive); GI50 [14]: 0.379 µM (active); GI50 [15]: 5.32 µM (inactive); GI50 [16]: 0.385 µM (active); GI50 [17]: 0.984 µM (active); GI50 [18]: 7.87 µM (inactive); GI50 [19]: 2.26 µM (inactive); GI50 [20]: 0.296 µM (active); GI50 [21]: 13.8 µM (inactive); GI50 [22]: 2.07 µM (inactive); GI50 [23]: 1.46 µM (inactive); GI50 [24]: 0.964 µM (active); GI50 [25]: 1.99 µM (inactive); GI50 [26]: 6.62 µM (inactive); GI50 [27]: 0.841 µM (active); GI50 [28]: 2.35 µM (inactive); GI50 [29]: 1.95 µM (inactive); GI50 [30]: 1.1 µM (active); GI50 [31]: 2.31 µM (inactive); GI50 [32]: 1.86 µM (inactive); GI50 [33]: 1.94 µM (inactive); GI50 [34]: 0.546 µM (active); GI50 [35]: 2.22 µM (inactive); GI50 [36]: 1.74 µM (inactive); GI50 [37]: 0.889 µM (active); GI50 [38]: 6.53 µM (inactive); GI50 [39]: 3.34 µM (inactive); GI50 [40]: 1.55 µM (inactive); GI50 [41]: 1.4 µM (inactive); GI50 [42]: 1.33 µM (inactive); GI50 [43]: 1.82 µM (inactive); GI50 [44]: 13.1 µM (inactive); GI50 [45]: 0.596 µM (active); GI50 [46]: 1.8 µM (inactive); GI50 [47]: 1.33 µM (inactive); GI50 [48]: 1.51 µM (inactive); GI50 [49]: 0.817 µM (active); GI50 [50]: 0.875 µM (active); GI50 [51]: 3.07 µM (inactive); GI50 [52]: 1.76 µM (inactive); GI50 [53]: 1.07 µM (active); GI50 [54]: 6.95 µM (inactive); GI50 [55]: 8.85 µM (inactive); GI50 [56]: 1.95 µM (inactive); GI50 [57]: 14.3 µM (inactive); GI50 [58]: 6.55 µM (inactive)

Question: Which results are given for O=C(O)CNCP(=O)(O)O [GLYPHOSATE]?
Answer: GI50 [1]: > 100 µM (inactive); GI50 [2]: > 100 µM (inactive); GI50 [3]: > 100 µM (inactive); GI50 [4]: > 100 µM (inactive); GI50 [5]: > 100000 nM; GI50 [6]: > 100 µM (inactive); GI50 [7]: > 100 µM (inactive); GI50 [8]: > 100 µM (inactive); GI50 [9]: > 100 µM (inactive); GI50 [10]: > 100 µM (inactive); GI50 [11]: > 100 µM (inactive); GI50 [12]: > 100 µM (inactive); GI50 [13]: > 100 µM (inactive); GI50 [14]: > 100 µM (inactive); GI50 [16]: > 100 µM (inactive); GI50 [17]: > 100 µM (inactive); GI50 [18]: > 100 µM (inactive); GI50 [19]: > 100 µM (inactive); GI50 [20]: > 100 µM (inactive); GI50 [21]: > 100 µM (inactive); GI50 [22]: > 100 µM (inactive); GI50 [23]: > 100 µM (inactive); GI50 [24]: > 100 µM (inactive); GI50 [25]: > 100 µM (inactive); GI50 [26]: > 100 µM (inactive); GI50 [27]: > 100 µM (inactive); GI50 [28]: > 100 µM (inactive); GI50 [29]: > 100 µM (inactive); GI50 [30]: > 100 µM (inactive); GI50 [31]: > 100 µM (inactive); GI50 [33]: > 100 µM (inactive); GI50 [34]: > 100 µM (inactive); GI50 [35]: > 100 µM (inactive); GI50 [36]: > 100 µM (inactive); GI50 [37]: > 100 µM (inactive); GI50 [38]: > 100 µM (inactive); GI50 [39]: > 100 µM (inactive); GI50 [40]: > 100 µM (inactive); GI50 [41]: > 100 µM (inactive); GI50 [42]: > 100 µM (inactive); GI50 [43]: > 100 µM (inactive); GI50 [44]: > 100 µM (inactive); GI50 [45]: > 100 µM (inactive); GI50 [46]: > 100 µM (inactive); GI50 [47]: > 100 µM (inactive); GI50 [48]: > 100 µM (inactive); GI50 [59]: > 100 µM (inactive); GI50 [49]: > 100 µM (inactive); GI50 [50]: > 100 µM (inactive); GI50 [51]: > 100 µM (inactive); GI50 [52]: > 100 µM (inactive); GI50 [53]: > 100 µM (inactive); GI50 [54]: > 100 µM (inactive); GI50 [55]: > 100 µM (inactive); GI50 [56]: > 100 µM (inactive); GI50 [57]: > 100 µM (inactive); GI50 [58]: > 100 µM (inactive)
